Reference: PubChem BioAssay (NCI)
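48-hour exposure; five concentrations; linearly interpolated endpoints. GI50: concentration for 50% inhibition of growth. TGI is the concentration that stops growth completely.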

Tests used:
Assay in all cases: DTP human tumour cell line panel, 48 h; in the data active means GI50 below about 0.43 µM; inactive means the rest
[1] = system: SNB-19 CNS
[2] = system: UACC-62 melanoma
[3] = system: EKVX NSCLC
[4] = system: RPMI-8226 leukemia
[5] = system: SR leukemia
[6] = system: SF-268 CNS
[7] = system: SN12C renal
[8] = system: T-47D breast
[9] = system: LOX IMVI melanoma
[10] = system: HOP-92 NSCLC
[11] = system: K-562 leukemia
[12] = system: HCT-15 colon
[13] = system: CAKI-1 renal
[14] = system: SK-MEL-28 melanoma
[15] = system: KM12 colon
[16] = system: A498 renal
[17] = system: OVCAR-5 ovarian
[18] = system: RXF 393 renal
[19] = system: MDA-MB-468 breast
[20] = system: M14 melanoma
[21] = system: MDA-MB-435
[22] = system: CCRF-CEM leukemia
[23] = system: A549 NSCLC
[24] = system: MOLT-4 leukemia
[25] = system: OVCAR-3 ovarian
[26] = system: HCC-2998 colon
[27] = system: UACC-257 melanoma
[28] = system: NCI-H522 lung
[29] = system: PC-3 prostate
[30] = system: TK-10 renal
[31] = system: SNB-75 CNS
[32] = system: UO-31 renal
[33] = system: NCI-H23 lung
[34] = system: COLO 205 colon
[35] = system: IGROV1 ovarian
[36] = system: SK-OV-3 ovarian
[37] = system: SW-620 colon
[38] = system: SK-MEL-2 melanoma
[39] = system: SK-MEL-5 melanoma
[40] = system: HS 578T breast
[41] = system: DU-145 prostate
[42] = system: NCI-H226 lung
[43] = system: NCI/ADR-RES ovarian
[44] = system: HT29 colon
[45] = system: OVCAR-4 ovarian
[46] = system: NCI-H460 lung
[47] = system: 786-0 renal
[48] = system: HL-60(TB) leukemia
[49] = system: U251 CNS
[50] = system: MALME-3M melanoma
[51] = system: MCF7 breast
[52] = system: SF-295 CNS
[53] = system: ACHN renal
[54] = system: MDA-MB-231 breast
[55] = system: OVCAR-8 ovarian
[56] = system: SF-539 CNS
[57] = system: HCT-116 colon
[58] = system: HOP-62 NSCLC
[59] = system: BT-549 breast

CN1CCc2c(sc3ncnc(N/N=C/c4cccc(Cl)c4Cl)c23)C1
inactive: GI50 [1] 5.61 µM | GI50 [2] > 24 µM | GI50 [3] 5.09 µM | GI50 [4] 6.69 µM | GI50 [5] 3.54 µM | GI50 [6] 10.7 µM | GI50 [7] 5.58 µM | GI50 [8] 5.55 µM | GI50 [9] 3.52 µM | GI50 [10] 4.92 µM | GI50 [11] 4.42 µM | GI50 [12] 4.76 µM | GI50 [13] 4.49 µM | GI50 [14] 13.7 µM | GI50 [15] > 24 µM | GI50 [16] > 24 µM | GI50 [17] 8.14 µM | GI50 [18] 3.19 µM | GI50 [19] 3.19 µM | GI50 [20] 12.8 µM | GI50 [21] 13.6 µM | GI50 [22] 4.41 µM | GI50 [23] 7.79 µM | GI50 [24] 7.65 µM | GI50 [25] 4.77 µM | GI50 [26] 4.47 µM | GI50 [27] > 24 µM | GI50 [28] 9.89 µM | GI50 [29] > 24 µM | GI50 [30] 5.5 µM | GI50 [31] 5.12 µM | GI50 [32] 6.39 µM | GI50 [33] 5.24 µM | GI50 [34] 4.34 µM | GI50 [35] 5.68 µM | GI50 [36] > 24 µM | GI50 [37] 7.79 µM | GI50 [38] > 24 µM | GI50 [39] 12.9 µM | GI50 [40] 6.56 µM | GI50 [41] 8.34 µM | GI50 [42] 11.6 µM | GI50 [43] 4.76 µM | GI50 [44] 4.16 µM | GI50 [45] 6.54 µM | GI50 [46] 7.54 µM | GI50 [47] 4.79 µM | GI50 [48] 4.01 µM | GI50 [49] 4.83 µM | GI50 [50] 7.15 µM | GI50 [51] 4.89 µM | GI50 [52] 3.82 µM | GI50 [53] 3.68 µM | GI50 [54] 3.88 µM | GI50 [55] 5.81 µM | GI50 [56] 3.83 µM | GI50 [57] 4.49 µM | GI50 [58] 4.45 µM | GI50 [59] 4.13 µM
> 24 µM: TGI [2] | TGI [4] | TGI [5] | TGI [6] | TGI [10] | TGI [14] | TGI [15] | TGI [16] | TGI [17] | TGI [20] | TGI [21] | TGI [22] | TGI [23] | TGI [24] | TGI [27] | TGI [28] | TGI [29] | TGI [32] | TGI [36] | TGI [37] | TGI [38] | TGI [39] | TGI [41] | TGI [42] | TGI [45] | TGI [46] | TGI [50] | TGI [59]
11.4 µM: TGI [13]
21.4 µM: TGI [31]
9.55 µM: TGI [44]
10.7 µM: TGI [26] | TGI [58]
8.23 µM: TGI [52]
15.4 µM: TGI [33] | TGI [35]
16.8 µM: TGI [7]
10 µM: TGI [47] | TGI [48]
12.3 µM: TGI [18]
10.8 µM: TGI [49]
10.6 µM: TGI [19]
7.89 µM: TGI [53]
6.83 µM: TGI [9]
17.8 µM: TGI [55]
9.78 µM: TGI [34]
13.8 µM: TGI [25]
17.6 µM: TGI [3] | TGI [51]
22.9 µM: TGI [40]
18.2 µM: TGI [1] | TGI [30]
8.01 µM: TGI [54]
18.3 µM: TGI [8]
15.1 µM: TGI [11]
15.3 µM: TGI [43]
7.3 µM: TGI [56]
11.2 µM: TGI [57]
17.1 µM: TGI [12]

COc1ccc2oc3c4[nH]c5ccccc5c4c4c(c3c2c1)C(=O)N(C(=O)OC(C)(C)C)C4=O
9.28 µM: TGI [15]
9.3 µM: TGI [27]
5.18 µM: TGI [14]
31 µM: TGI [17]
7.23 µM: TGI [8]
> 100 µM: TGI [1] | TGI [5] | TGI [11] | TGI [22] | TGI [26] | TGI [29] | TGI [30] | TGI [37] | TGI [41] | TGI [44] | TGI [46] | TGI [47] | TGI [54]
11.5 µM: TGI [56]
22 µM: TGI [19]
8.29 µM: TGI [4]
24.2 µM: TGI [57]
11.3 µM: TGI [50]
10.6 µM: TGI [33]
11.1 µM: TGI [55]
27.6 µM: TGI [35]
15.4 µM: TGI [43]
5.01 µM: TGI [24]
14.1 µM: TGI [9]
10.2 µM: TGI [38]
9.22 µM: TGI [53]
89.2 µM: TGI [45]
12.2 µM: TGI [58]
19.2 µM: TGI [18]
24.1 µM: TGI [42]
9.77 µM: TGI [16]
37.2 µM: TGI [7]
28.2 µM: TGI [49]
16.1 µM: TGI [39]
11.9 µM: TGI [2]
24.3 µM: TGI [36]
32.2 µM: TGI [3]
9.07 µM: TGI [48]
10.3 µM: TGI [34]
49.3 µM: TGI [23]
5 µM: TGI [20]
10.9 µM: TGI [52]
37.4 µM: TGI [13]
16.7 µM: TGI [25]
inactive: GI50 [1] 4.21 µM | GI50 [2] 2.4 µM | GI50 [3] 3.33 µM | GI50 [4] 1.83 µM | GI50 [5] 1.59 µM | GI50 [6] 3.11 µM | GI50 [7] 2.25 µM | GI50 [8] 1.28 µM | GI50 [9] 3.05 µM | GI50 [10] 2.64 µM | GI50 [11] 2.79 µM | GI50 [12] 2.12 µM | GI50 [13] 2.59 µM | GI50 [14] 1.67 µM | GI50 [15] 0.578 µM | GI50 [16] 1.47 µM | GI50 [17] 2.06 µM | GI50 [18] 3.12 µM | GI50 [19] 2.84 µM | GI50 [20] 1.22 µM | GI50 [21] 1.43 µM | GI50 [22] 2.65 µM | GI50 [23] 2.84 µM | GI50 [24] 1.47 µM | GI50 [25] 3.72 µM | GI50 [26] 3.98 µM | GI50 [27] 2.49 µM | GI50 [28] 2.2 µM | GI50 [29] 1.88 µM | GI50 [30] 2.56 µM | GI50 [31] 3.07 µM | GI50 [32] 0.9 µM | GI50 [33] 2.1 µM | GI50 [34] 3.03 µM | GI50 [35] 2.4 µM | GI50 [36] 2.59 µM | GI50 [37] 2.33 µM | GI50 [38] 2.84 µM | GI50 [39] 4.09 µM | GI50 [40] 2.5 µM | GI50 [41] 3.26 µM | GI50 [42] 2.52 µM | GI50 [43] 2.6 µM | GI50 [44] 2.98 µM | GI50 [45] 4.18 µM | GI50 [46] 2.32 µM | GI50 [47] 3.65 µM | GI50 [48] 2.28 µM | GI50 [49] 2.86 µM | GI50 [50] 1.91 µM | GI50 [51] 1.43 µM | GI50 [52] 2.62 µM | GI50 [53] 1.49 µM | GI50 [54] 6.45 µM | GI50 [55] 2.4 µM | GI50 [56] 3.12 µM | GI50 [57] 3.06 µM | GI50 [58] 2.45 µM | GI50 [59] 2.09 µM
18.3 µM: TGI [21]
25.8 µM: TGI [32]
12.4 µM: TGI [40]
11.6 µM: TGI [28]
33.8 µM: TGI [31]
12.8 µM: TGI [51]
10.1 µM: TGI [59]
10.4 µM: TGI [12]
41.6 µM: TGI [6]
41.3 µM: TGI [10]
